Tests used:
[1] = biological target: T1, alpha2C adrenergic receptors (Homo sapiens, UniProt P18825); assay: Receptor Selection and Amplification Technology (RSAT) assay, alpha2C; format: cell-based; conditions: for EC50: NA = not active at concentrations less than 10 micromolar, read-out: Alpha 2C EC50; for Alpha 2C intrinsic activity: fraction of maximal effect of standard full agonist brimonidine (UK14304)
T1 construct: expressed in transfected cells; host or cells: NIH-3T3
T1 sequence (P18825 1-462): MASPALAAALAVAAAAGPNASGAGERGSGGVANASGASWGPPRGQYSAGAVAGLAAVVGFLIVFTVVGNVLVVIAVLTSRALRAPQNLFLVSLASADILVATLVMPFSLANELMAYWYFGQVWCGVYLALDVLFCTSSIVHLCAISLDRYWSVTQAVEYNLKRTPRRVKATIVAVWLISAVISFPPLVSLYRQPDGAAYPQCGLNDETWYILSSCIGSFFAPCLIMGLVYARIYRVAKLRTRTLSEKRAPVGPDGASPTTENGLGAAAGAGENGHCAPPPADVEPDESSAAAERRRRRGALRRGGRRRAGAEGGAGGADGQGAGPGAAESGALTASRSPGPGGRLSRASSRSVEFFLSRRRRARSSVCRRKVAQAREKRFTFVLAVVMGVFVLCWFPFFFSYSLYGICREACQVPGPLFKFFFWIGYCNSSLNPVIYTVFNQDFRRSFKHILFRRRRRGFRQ
From the text: (§1) The imidazole-2-thione compounds of the invention are agonists of alpha2 adrenergic receptors, particularly they tend to be specific or selective agonists of alpha2B and/or to a lesser extent alpha2C adrenergic receptors, in preference over alpha2A adrenergic receptors. […] Al., 1995, Pharmacol. Toxicol. 76, pp. 308-311 (incorporated herein by reference) and is also described below. Another reference pertinent to this assay is Conklin et al. (1993) Nature 363:274-6, also incorporated herein by reference.
(§2) Receptor Selection and Amplification Technology (RSAT) Assay
(§3) The RSAT assay measures a receptor-mediated loss of contact inhibition that results in selective proliferation of receptor-containing cells in a mixed population of confluent cells. The increase in cell number is assessed with an appropriate transfected marker gene such as β-galactosidase, the activity of which can be easily measured in a 96-well format. Receptors that activate the G protein, Gq, elicit this response. Alpha2 receptors, which normally couple to Gi, activate the RSAT response when coexpressed with a hybrid Gq protein that has a Gi receptor recognition domain, called Gq/i5.
(§4) NIH-3T3 cells are plated at a density of 2×10^6 cells in 15 cm dishes and maintained in Dulbecco's modified Eagle's medium supplemented with 10% calf serum. One day later, cells are cotransfected by calcium phosphate precipitation with mammalian expression plasmids encoding p-SV-β-galactosidase (5-10 μg), receptor (1-2 μg) and G protein (1-2 μg). 40 μg salmon sperm DNA may also be included in the transfection mixture. Fresh media is added on the following day and 1-2 days later, cells are harvested and frozen in 50 assay aliquots. Cells are thawed and 100 μl added to 100 μl aliquots of various concentrations of drugs in triplicate in 96-well dishes. Incubations continue 72-96 hr at 37 EC. After washing with phosphate-buffered saline, β-galactosidase enzyme activity is determined by adding 200 μl of the chromogenic substrate (consisting of 3.5 mM o-nitrophenyl-β-D-galactopyranoside and 0.5% nonidet P-40 in phosphate buffered saline), incubating overnight at 30 EC and measuring optical density at 420 nm. The absorbance is a measure of enzyme activity, which depends on cell number and reflects a receptor-mediated cell proliferation. The EC50 and maximal effect of each drug at each alpha2 receptor is determined. The efficacy or intrinsic activity is calculated as a ratio of the maximal effect of the drug to the maximal effect of a standard full agonist for each receptor subtype. Brimonidine, also called UK14304, the chemical structure of which is shown below, is used as the standard agonist for the alpha2A, alpha2B and alpha2C receptors.
(§5) The results of the RSAT assay with several exemplary compounds of the invention are disclosed in Table 1 above together with the chemical formulas of these examplary compounds. […] NA stands for “not active” at concentrations less than 10 micromolar. As is known EC50 is the concentration at which half of a given compound's maximal activity is observed.

[2] = biological target: T2, alpha2B adrenergic receptors (Homo sapiens, UniProt P18089); assay: Receptor Selection and Amplification Technology (RSAT) assay, alpha2B; format: cell-based; conditions: for EC50: NA = not active at concentrations less than 10 micromolar, read-out: Alpha 2B EC50; for Alpha 2B intrinsic activity: fraction of maximal effect of standard full agonist brimonidine (UK14304)
T2 construct: expressed in transfected cells; host or cells: NIH-3T3
T2 sequence (P18089 1-450): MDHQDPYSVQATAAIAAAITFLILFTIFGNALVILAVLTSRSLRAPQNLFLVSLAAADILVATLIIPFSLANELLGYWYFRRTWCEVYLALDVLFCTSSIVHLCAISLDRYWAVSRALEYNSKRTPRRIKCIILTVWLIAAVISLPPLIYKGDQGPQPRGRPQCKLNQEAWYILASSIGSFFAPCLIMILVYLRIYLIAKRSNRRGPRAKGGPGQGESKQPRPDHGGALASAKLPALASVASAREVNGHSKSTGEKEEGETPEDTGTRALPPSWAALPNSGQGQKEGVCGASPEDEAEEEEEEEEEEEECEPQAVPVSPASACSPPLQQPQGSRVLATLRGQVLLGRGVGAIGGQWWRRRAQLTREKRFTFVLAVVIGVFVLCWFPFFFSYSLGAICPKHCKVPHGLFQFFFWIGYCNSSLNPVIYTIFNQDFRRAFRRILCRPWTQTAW
From the text: as §1, §2, §3, §4, §5

EC50 [1] [nM] | Alpha 2C intrinsic activity [1] | EC50 [2] [nM] | Alpha 2B intrinsic activity [2] | SMILES
> 2000 | 0.32 | 750 | 0.49 | CCC1=CC(Cc2c[nH]c(=S)[nH]2)CC1 (centres unmarked)
662 | 0.75 | 260 | 1.0 | CC(C)CC1=CCCC1Cc1c[nH]c(=S)[nH]1 (centres unmarked)
2470 | 0.72 | 1620 | 0.88 | CC=CC1=CCCC1Cc1c[nH]c(=S)[nH]1 (centres unmarked)
306 | 0.34 | 162 | 0.95 | O=C1c2c(CO)cccc2CCC1Cc1c[nH]c(=S)[nH]1 (centres unmarked)
107 | 0.35 | 172 | 0.76 | O=C1c2c(F)cccc2CCC1Cc1c[nH]c(=S)[nH]1 (centres unmarked)
180 | 0.51 | 24 | 0.85 | S=c1[nH]cc(CC2CC=CC2)[nH]1 [drawing 24]

Continued, compound first:

SMILES | EC50 [1] [nM] | Alpha 2C intrinsic activity [1] | EC50 [2] [nM] | Alpha 2B intrinsic activity [2]
Cc1cccc2c1CCC2Cc1c[nH]c(=S)[nH]1 (centres unmarked) | 939 | 0.34 | 58 | 0.93
Fc1ccc2c(c1)CCC2Cc1c[nH]c(=S)[nH]1 (centres unmarked) | 1110 | 0.52 | 41 | 0.97
COc1ccc2c(c1)CCC2Cc1c[nH]c(=S)[nH]1 (centres unmarked) | > 2000 | 0.46 | 1590 | 0.68
S=c1[nH]cc(CC2CCc3cc(Br)ccc32)[nH]1 (centres unmarked) | – | 0.62 | 158 | 0.85
Cc1ccc2c(c1)C(Cc1c[nH]c(=S)[nH]1)CC2 (centres unmarked) | 349 | 0.69 | 19 | 0.92
COc1ccc2c(c1)C(Cc1c[nH]c(=S)[nH]1)CC2 (centres unmarked) | 139 | 1.0 | 30 | 0.94
C=CC1=CCCC1Cc1c[nH]c(=S)[nH]1 (centres unmarked) | > 2000 | 0.57 | 422 | 1.11
CC1CC(Cc2c[nH]c(=S)[nH]2)C(=O)c2ccccc21 (centres unmarked) | > 2000 | 0.61 | 523 | 0.96
Cc1cccc2c1C(=O)C(Cc1c[nH]c(=S)[nH]1)CC2 (centres unmarked) | 66 | 0.47 | 29 | 0.96
S=c1[nH]cc(C[C@H]2CCc3ccccc32)[nH]1 | 64 | 0.56 | 7.5 | 0.95
S=c1[nH]cc(C[C@@H]2CCc3ccccc32)[nH]1 | 630 | 0.61 | 24.5 | 0.97
S=c1[nH]cc(CC2CCC=C2Cl)[nH]1 (centres unmarked) | 116 | 0.55 | 28 | 0.9
CC1=C(Br)C(Cc2c[nH]c(=S)[nH]2)CC1 (centres unmarked) | 139 | 0.48 | 27 | 0.95
S=c1[nH]cc(CC2CCC3=C2CCC3)[nH]1 (centres unmarked) [drawing 15] | 110 | 0.43 | 5 | 0.87
S=c1[nH]cc(CC2CCc3ccccc32)[nH]1 (centres unmarked) [drawing 16] | 182 | 0.57 | 10 | 0.91

— patent US7323485B2, “4-(substituted cycloalkylmethyl) imidazole-2-thiones, 4-(substituted cycloalkenylmethyl) imidazole-2-thiones, 4-(substituted cycloalkylmethyl) imidazol-2-ones and 4-(substituted cycloalkenylmethyl) imidazol-2-ones and related compounds” (Allergan, Inc., priority 2002, dated 2008)
